The test deals with T1, PI3Kα kinase (Homo sapiens, UniProt P42336).
T1 construct: purchased Invitrogen PV4788
As to the kind of experiment: PI3Ka Transcreener ADP assay (fluorescence polarization). Type of test: biochemical. As to conditions: 10 μM ATP, 30 μmol/L lipid substrate; read-out: IC50, inhibition of PI3Kα kinase. As for the experimental part: Fluorescence polarization was used in this assay. The final conditions for kinase assay are 10 μM of ATP, 0.2 ng/μL of PI3Kα kinase, 30 μmol/L of lipid substrate and assay buffer (50 mmol/L of HEPES (pH 7.5), 100 mmol/L of NaCl, 1 mmol/L of EGTA, 3 mmol/L of MgCl2, 1 mmol/L of DTT and 0.03% CHAPS and 2% DMSO).
5 μL of test compounds in 10% DMSO and 10 μL of 0.5 ng/μL PI3K kinase (Invitrogen, PV4788) in assay buffer are put into a 96-well plate (Greiner, Cat. 675076), and then the reaction is started by the addition of 10 μL of 75 μmol/L PIP2, (PS Lipid Substrate Invitrogen, PV5100), and 25 μmol/L ATP mixture. After the mixture is incubated for 60 minutes at room temperature, 25 μL of transcreener Kinase Kit reagent—ADP Detection Mix—(Bellbrook Labs) is added, and the reaction is continued for an additional 1.5 hours. At the end, the plate is read in a Tecan Infinite F500 at excitation of 610 nm and emission of 670 nm.
A standard curve for ADP is obtained in a parallel way by replacing compound and PI3Kα kinase with DMSO and assay buffer, respectively. Different concentration of ADP, 0-10 μM, and ATP, 10-0 μM (ATP+ADP equal to 10 μM) are applied instead of a fixed concentration of ATP in this standard curve assay. Other conditions are the same as described above. The standard curve is plotted using Origin 8.0 software. The inhibition of test compound on ADP production is calculated based on ADP concentration from standard curve. IC50 is obtained using XLfit 2.0 software.
(Polarisation of emitted light reports the rotation of a fluorescent probe.)

T1 sequence (P42336 whole entry): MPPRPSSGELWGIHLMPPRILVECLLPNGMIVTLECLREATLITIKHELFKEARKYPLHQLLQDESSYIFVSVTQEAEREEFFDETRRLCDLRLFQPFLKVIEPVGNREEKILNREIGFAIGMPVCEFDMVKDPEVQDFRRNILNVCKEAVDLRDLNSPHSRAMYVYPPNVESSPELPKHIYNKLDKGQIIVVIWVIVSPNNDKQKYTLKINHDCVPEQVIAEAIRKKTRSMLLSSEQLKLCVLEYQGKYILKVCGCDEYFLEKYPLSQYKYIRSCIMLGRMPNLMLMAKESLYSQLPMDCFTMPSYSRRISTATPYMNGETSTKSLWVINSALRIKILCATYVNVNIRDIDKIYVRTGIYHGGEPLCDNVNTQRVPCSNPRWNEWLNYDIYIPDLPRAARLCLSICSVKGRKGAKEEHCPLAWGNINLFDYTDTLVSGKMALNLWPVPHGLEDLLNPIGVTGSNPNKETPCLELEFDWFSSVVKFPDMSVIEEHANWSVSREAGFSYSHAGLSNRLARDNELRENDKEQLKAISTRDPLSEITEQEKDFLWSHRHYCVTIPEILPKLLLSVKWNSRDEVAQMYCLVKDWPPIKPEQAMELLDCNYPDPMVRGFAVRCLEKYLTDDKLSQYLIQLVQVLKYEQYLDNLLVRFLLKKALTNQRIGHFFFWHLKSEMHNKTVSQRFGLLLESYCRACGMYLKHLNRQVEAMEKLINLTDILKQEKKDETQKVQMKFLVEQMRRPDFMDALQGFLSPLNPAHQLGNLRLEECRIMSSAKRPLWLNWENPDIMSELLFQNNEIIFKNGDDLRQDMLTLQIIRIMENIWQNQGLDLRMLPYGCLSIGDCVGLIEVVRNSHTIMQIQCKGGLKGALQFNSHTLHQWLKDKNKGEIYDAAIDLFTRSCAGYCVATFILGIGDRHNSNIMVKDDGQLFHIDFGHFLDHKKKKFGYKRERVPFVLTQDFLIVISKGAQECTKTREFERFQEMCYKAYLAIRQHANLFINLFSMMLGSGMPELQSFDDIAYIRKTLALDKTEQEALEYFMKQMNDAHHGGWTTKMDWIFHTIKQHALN
T1 sequence (P27986 whole entry partner): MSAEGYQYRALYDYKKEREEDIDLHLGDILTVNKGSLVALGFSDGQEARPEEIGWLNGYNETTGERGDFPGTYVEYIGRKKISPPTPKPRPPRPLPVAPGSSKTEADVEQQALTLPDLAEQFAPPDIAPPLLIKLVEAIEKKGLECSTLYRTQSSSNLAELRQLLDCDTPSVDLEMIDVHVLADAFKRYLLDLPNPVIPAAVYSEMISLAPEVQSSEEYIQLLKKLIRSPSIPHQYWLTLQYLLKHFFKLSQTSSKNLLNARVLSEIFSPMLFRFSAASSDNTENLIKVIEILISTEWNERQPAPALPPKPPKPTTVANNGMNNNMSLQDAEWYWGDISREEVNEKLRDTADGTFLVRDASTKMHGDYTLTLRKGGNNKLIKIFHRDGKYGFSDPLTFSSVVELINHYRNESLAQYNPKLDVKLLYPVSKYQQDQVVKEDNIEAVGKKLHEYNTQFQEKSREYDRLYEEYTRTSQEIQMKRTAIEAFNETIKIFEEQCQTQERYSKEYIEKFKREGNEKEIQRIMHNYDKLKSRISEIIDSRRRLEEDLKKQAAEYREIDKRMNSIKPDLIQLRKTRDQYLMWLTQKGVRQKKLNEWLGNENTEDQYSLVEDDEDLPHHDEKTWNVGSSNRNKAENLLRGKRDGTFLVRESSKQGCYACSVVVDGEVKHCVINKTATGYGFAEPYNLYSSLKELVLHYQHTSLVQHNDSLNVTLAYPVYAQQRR

Turning to `Nc1ncc(-c2ccc3ncc4nnn(C5CCN(CC6CCOCC6)CC5)c4c3n2)cc1C(F)(F)F` [Compound 48, 5-(1-(1-((tetrahydro-2H-pyran-4-yl)methyl)piperidin-4-yl)-1H-[1,2,3]triazolo[4,5-c][1,5]naphthyridin-8-yl)-3-(trifluoromethyl)pyridin-2-amine], the IC50 (as a rule, the midpoint of a concentration-inhibition curve) is below 100 nM.
The value for `CN1CCC(C(=O)N2CCC(n3nnc4cnc5ccc(-c6cnc(N)c(C(F)(F)F)c6)nc5c43)CC2)CC1` [Compound 36] was below 100 nM.
`C[C@H](O)C(=O)N1CCC(c2nnc3cnc4ccc(-c5ccc6nc(N)sc6c5)cc4n23)CC1` [Compound 80]: the IC50 is below 100 nM.
The figure for `Cc1nc2cnc3ccc(-c4cnc(N)c(C(F)(F)F)c4)nc3c2n1C1CCN(C(=O)c2ccccn2)CC1` [Compound 132] is below 100 nM; for `Cc1nc2cnc3ccc(-c4cnc(N)c(C(F)(F)F)c4)nc3c2n1CCCN1CCOCC1` [Compound 142] it is below 100 nM.
The figure for `Cc1ccc(-c2ccc3ncc4ncn(C5CCN(CC(=O)N(C)C)CC5)c4c3n2)cn1` [Compound 100] is below 100 nM; for `Cc1ccc(-c2nnc3cnc4ccc(-c5cnc(N)c(C(F)(F)F)c5)cc4n23)cn1` [Compound 65] it is below 100 nM.
Take `N#Cc1ccc(-c2nnc3cnc4ccc(-c5cnc(N)c(C(F)(F)F)c5)cc4n23)cc1` [Compound 64]: the IC50 is below 100 nM.
Regarding `C[C@@H](O)C(=O)N1CCC(n2nnc3cnc4ccc(-c5cnc(N)c(C(F)(F)F)c5)cc4c32)CC1` [Compound 24], the IC50 is below 100 nM.
As to `Nc1ncc(-c2ccc3ncc4nnc(-c5ccc(F)cc5)n4c3c2)cc1C(F)(F)F` [Compound 70], the IC50 was below 100 nM.
`CCNC(=O)N1CCC(n2cnc3cnc4ccc(-c5cnc(N)c(C(F)(F)F)c5)nc4c32)CC1` [Compound 101]: the IC50 was below 100 nM.
As to `C[C@H](O)C(=O)N1CCC(n2nnc3cnc4ccc(-c5cnc(N)c(C(F)(F)F)c5)cc4c32)CC1` [Compound 23], the IC50 was below 100 nM.
The value for `Cc1ccc(-c2ccc3ncc4nnn(C5CCN(C(=O)[C@H](C)O)CC5)c4c3n2)cn1` [Compound 2] was below 100 nM; that for `COc1ncc(-c2ccc3ncc4nnc(CN5CCCC5)n4c3c2)cc1NS(C)(=O)=O` [Compound 174] was below 100 nM.
The figure for `Nc1ncc(-c2ccc3ncc4nnn(C5CCN(C(=O)c6ccccc6)CC5)c4c3n2)cc1C(F)(F)F` [Compound 41] is below 100 nM; for `CC(C)(C#N)c1ccc(-c2nnc3cnc4ccc(-c5ccc6nc(N)oc6c5)cc4n23)cn1` [Compound 67] it is below 100 nM; for `C=CC(=O)N1CCC(n2c(C)nc3cnc4ccc(-c5cnc(N)c(C(F)(F)F)c5)nc4c32)CC1` [Compound 140] it is below 100 nM.
The value for `Nc1ncc(-c2ccc3ncc4nnn(C5CCN(C(=O)c6ccccn6)CC5)c4c3n2)cc1C(F)(F)F` [Compound 40] was below 100 nM; that for `COc1ncc(-c2ccc3ncc4nnc(C)n4c3c2)cc1NS(C)(=O)=O` [Compound 150] was below 100 nM; that for `Nc1ncc(-c2ccc3ncc4nnc(CN5CCCC5)n4c3c2)cc1C(F)(F)F` [Compound 87] was below 100 nM.
For `CC(C)(C#N)c1ccc(-c2nnc3cnc4ccc(-c5cnc6[nH]ccc6c5)cc4n23)cc1` [Compound 69], the IC50 was below 100 nM.
The value for `COc1cc(-c2ccc3ncc4ncn(-c5ccc(C(C)(C)C#N)nc5)c4c3n2)cnc1OC` [Compound 92] was below 100 nM; that for `Nc1ncc(-c2ccc3ncc4nnc(C5CCC(O)CC5)n4c3c2)cc1C(F)(F)F` (centres unmarked) [Compound 85] was below 100 nM; that for `COc1ncc(-c2ccc3ncc4nnc(C(=O)N(C)C)n4c3c2)cc1NS(=O)(=O)C1CC1` [Compound 168] was below 100 nM.
The figure for `C[C@@H](O)C(=O)N1CCC(n2cnc3cnc4ccc(-c5cnc(N)c(C(F)(F)F)c5)nc4c32)CC1` [Compound 110] is below 100 nM; for `N#Cc1ccc(-c2nnc3cnc4ccc(-c5ccc6nc(N)sc6c5)cc4n23)nc1` [Compound 73] it is below 100 nM.
The figure for `CS(=O)(=O)c1ccc(-c2nnc3cnc4ccc(-c5cnc(N)c(C(F)(F)F)c5)cc4n23)cc1` [Compound 71] is below 100 nM.
Regarding `CC(C)(C#N)c1ccc(-n2cnc3nnc4ccc(-c5cnc(N)c(C(F)(F)F)c5)cc4c32)cc1` [Compound 183, 2-(4-(8-(6-amino-5-(trifluoromethyl)pyridin-3-yl)-1H-imidazo[4,5-c]cinnolin-1-yl)phenyl)-2-methylpropanenitrile], the IC50 was below 100 nM.
As to `COc1ncc(-c2ccc3ncc4nnc(C)n4c3c2)cc1NS(=O)(=O)c1ccc(C)cc1` [Compound 179, N-(2-methoxy-5-(1-methyl-[1,2,4]triazolo[4,3-a]quinoxalin-8-yl)pyridin-3-yl)-4-methylbenzenesulfonamide], the IC50 was below 100 nM.
`COc1ncc(-c2ccc3ncc4nc(C)n(C5CCN(S(C)(=O)=O)CC5)c4c3n2)cn1` [Compound 139]: the IC50 is below 100 nM.
On to `COc1ncc(-c2ccc3ncc4nc(C)n(C5CCN(C(=O)C6CC6)CC5)c4c3n2)cc1C(F)(F)F` [Compound 143], for which the IC50 is below 100 nM.
The figure for `CC(=O)N1CCC(Cc2nnc3cnc4ccc(-c5ccc6nc(N)sc6c5)cc4n23)CC1` [Compound 83] is below 100 nM.
On to `CC(C)(C#N)c1ccc(-c2nnc3cnc4ccc(-c5cnc(N)c(C(F)(F)F)c5)cc4n23)cn1` [Compound 54], for which the IC50 is below 100 nM.
The value for `COc1ncc(-c2ccc3ncc4nnc(C)n4c3c2)cc1NS(=O)(=O)c1ccc(F)cc1` [Compound 182] was below 100 nM; that for `COc1ncc(-c2ccc3ncc4nccn4c3c2)cc1NS(=O)(=O)C(F)(F)F` [Compound 176] was below 100 nM; that for `Cc1nc2cnc3ccc(-c4cnc(N)c(C(F)(F)F)c4)nc3c2n1C1CCN(CC(=O)N2CCCC2)CC1` [Compound 125] was below 100 nM.
The value for `Cc1ccc(-c2ccc3ncc4ncn(C5CCN(C(=O)[C@H](C)O)CC5)c4c3n2)cn1` [Compound 113] was below 100 nM.
Turning to `COc1cc(-c2ccc3ncc4ncn(-c5ccc(C(C)(C)C#N)nc5)c4c3n2)cnc1N` [Compound 95], the IC50 is below 100 nM.
The figure for `COc1ncc(-c2ccc3ncc4nnc(C(=O)N(C)C)n4c3c2)cc1NS(=O)(=O)c1ccccc1` [Compound 169] is below 100 nM.
On to `Nc1ncc(-c2ccc3ncc4ncn(CCN5CCOCC5)c4c3n2)cc1C(F)(F)F` [Compound 109], for which the IC50 was below 100 nM.
On to `COc1ncc(-c2ccc3ncc4ncn(CCN5CCOCC5)c4c3n2)cc1NS(C)(=O)=O` [Compound 177], for which the IC50 is below 100 nM.
The figure for `COc1ncc(-c2ccc3ncc4nncn4c3c2)cc1NS(=O)(=O)c1ccc(F)cc1F` [Compound 161] is below 100 nM.
Regarding `CC(=O)N1CCC(Cc2nnc3cnc4ccc(-c5cnc(N)c(C(F)(F)F)c5)cc4n23)CC1` [Compound 82], the IC50 is below 100 nM.
Turning to `Cc1cc(-c2ccc3ncc4nnc(-c5ccc(C(C)(C)C#N)nc5)n4c3c2)cnc1N` [Compound 57], the IC50 was below 100 nM.
Take `C=CC(=O)N1CCC(n2nnc3cnc4ccc(-c5cnc(N)c(C(F)(F)F)c5)nc4c32)CC1` [Compound 28]: the IC50 was below 100 nM.
On to `Nc1ncc(-c2ccc3ncc4nnn(C5CCN(Cc6ccccn6)CC5)c4c3n2)cc1C(F)(F)F` [Compound 47], for which the IC50 was below 100 nM.
The figure for `C[C@H](O)C(=O)N1CCC(c2nnc3cnc4ccc(-c5cnc(N)c(C(F)(F)F)c5)cc4n23)CC1` [Compound 79, (S)-1-(4-(8-(6-amino-5-(trifluoromethyl)pyridin-3-yl)-[1,2,4]triazolo[4,3-a]quinoxalin-1-yl)piperidin-1-yl)-2-hydroxypropan-1-one] is below 100 nM.
The value for `COc1ncc(-c2ccc3ncc4nnc(-c5ccc(C(C)(C)C#N)cc5)n4c3c2)cc1N` [Compound 74] was below 100 nM; that for `Cc1ccc(-c2ccc3ncc4nc(C)n(C5CCN(C(=O)[C@H](C)O)CC5)c4c3n2)cn1` [Compound 127] was below 100 nM.
For `CC(C)(C#N)c1ccc(-c2nnc3cnc4ccc(-c5ccc6[nH]ncc6c5)cc4n23)cc1` [Compound 61], the IC50 was below 100 nM.
Consider `COc1ncc(-c2ccc3ncc4nnc(CN5CCCC5)n4c3c2)cc1NS(=O)(=O)c1ccccc1` [Compound 175], for which the IC50 was below 100 nM.
The value for `CC(C)(C#N)C(=O)c1ccc(-c2nnc3cnc4ccc(-c5cnc(N)c(C(F)(F)F)c5)cc4n23)cc1` [Compound 68] was below 100 nM.
As to `CCOc1cc(-c2ccc3ncc4ncn(-c5ccc(C(C)(C)C#N)nc5)c4c3n2)cnc1N` [Compound 108], the IC50 is below 100 nM.
The figure for `CC(C)(C#N)c1ccc(-c2nnc3cnc4ccc(-c5cnc(N)c(Cl)c5)cc4n23)cc1` [Compound 77] is below 100 nM.
On to `Cc1cc(-c2ccc3ncc4nnn(C5CCN(C(=O)[C@H](C)O)CC5)c4c3n2)cnc1N` [Compound 3], for which the concentration for half-maximal inhibition (IC50) is below 100 nM.
The value for `CCCCC(=O)N1CCC(n2nnc3cnc4ccc(-c5cnc(N)c(C(F)(F)F)c5)nc4c32)CC1` [Compound 37] was below 100 nM.

Source of the values: patent US9181264B2, “Fused heteroaryls and their uses” (Hutchison MediPharma Limited, priority 2011, dated 2015).
